Assay results published in patent US8574563B2 (Bristol-Myers Squibb Company, priority 2006, dated 2013).
pEC50: −log10 of the molar value.

Each molecule was assayed on HCV 1b-377-neo replicon cells (assay: HCV replicon assay, HCV 1b-377-neo replicon cells (1b FRET)). Details: Hepatitis C virus, HCV 1b-377-neo replicon cells; HCV 1b genotype; read-out: EC50 range against HCV 1b (Table 2, Range).
Assay type: cell-based, Hepatitis C virus genotype 1b
Procedure, shortened: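 Compounds were tested in genotype 1b subgenomic replicon cells carrying a neomycin marker, alongside a matched replicon line with an NS5A Y2065H substitution that confers resistance to a reference NS5A inhibitor.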

Compound	pEC50
COC(=O)N[C@@H](C(=O)N1CCC[C@H]1c1ncc(-c2ccc(-c3ccc(-c4cnc([C@@H]5CCCN5C(=O)[C@@](OC)(c5ccccc5)C(F)(F)F)[nH]4)cc3)cc2)[nH]1)c1ccccc1 [Example 84-81, methyl ((1R)-2-oxo-1-phenyl-2-((2S)-2-(5-(4′-(2-((2S)-1-((2S)-3,3,3-trifluoro-2-methoxy-2-phenylpropanoyl)-2-pyrrolidinyl)-1H-imidazol-5-yl)-4-biphenylyl)-1H-imidazol-2-yl)-1-pyrrolidinyl)ethyl)carbamate]	9.00 to 12.00
O=C1CN(C(C(=O)N2CCC[C@H]2c2ncc(-c3ccc(-c4ccc(-c5c[nH]c([C@@H]6CCCN6C(=O)[C@H]6CCCO6)n5)cc4)cc3)[nH]2)c2ccccc2)CCN1 (stereo partly drawn) [Example 103-8, 4-(2-oxo-1-phenyl-2-((2S)-2-(5-(4′-(2-((2S)-1-((2R)-tetrahydro-2-furanylcarbonyl)-2-pyrrolidinyl)-1H-imidazol-4-yl)-4-biphenylyl)-1H-imidazol-2-yl)-1-pyrrolidinyl)ethyl)-2-piperazinone]	9.00 to 12.00
COC(=O)N[C@@H](C(=O)N1CCC[C@H]1c1ncc(-c2ccc(-c3ccc(-c4cnc([C@@H]5CCCN5C(=O)C5(c6ccccc6)CC5)[nH]4)cc3)cc2)[nH]1)c1ccccc1 [Example 84-77, methyl ((1R)-2-oxo-1-phenyl-2-((2S)-2-(5-(4′-(2-((2S)-1-((1-phenylcyclopropyl)carbonyl)-2-pyrrolidinyl)-1H-imidazol-5-yl)-4-biphenylyl)-1H-imidazol-2-yl)-1-pyrrolidinyl)ethyl)carbamate]	9.00 to 12.00
COC(=O)N[C@@H](C)C(=O)N1CCC[C@H]1c1ncc(-c2ccc(-c3ccc(-c4cnc([C@@H]5CCCN5C(=O)[C@H](NC(=O)OC)c5ccccc5)[nH]4)c(F)c3)cc2F)[nH]1 [Example D62, methyl ((1R)-2-((2S)-2-(5-(3,3′-difluoro-4′-(2-((2S)-1-(N-(methoxycarbonyl)-L-alanyl)-2-pyrrolidinyl)-1H-imidazol-5-yl)-4-biphenylyl)-1H-imidazol-2-yl)-1-pyrrolidinyl)-2-oxo-1-phenylethyl)carbamate]	9.00 to 12.00
COC(=O)N[C@@H](C(=O)N1CCC[C@H]1c1ncc(-c2ccc(-c3ccc(-c4cnc([C@@H]5CCCN5C(=O)[C@@H]5C[C@@H](F)CN5C)[nH]4)cc3)cc2)[nH]1)c1ccccc1 [Example 70, methyl ((1R)-2-((2S)-2-(5-(4′-(2-((2S)-1-((4R)-4-fluoro-1-methyl-L-prolyl)-2-pyrrolidinyl)-1H-imidazol-5-yl)-4-biphenylyl)-1H-imidazol-2-yl)-1-pyrrolidinyl)-2-oxo-1-phenylethyl)carbamate]	7.00 to 9.00
CCCOC(=O)N[C@@H](C)C(=O)N1CCC[C@H]1c1nc(-c2ccc(-c3ccc(-c4cnc([C@@H]5CCCN5C(=O)[C@H](C)NC(=O)OCCC)[nH]4)cc3)cc2)c[nH]1 [Example F20, propyl ((1S)-1-methyl-2-oxo-2-((2S)-2-(4-(4′-(2-((2S)-1-(N-(propoxycarbonyl)-L-alanyl)-2-pyrrolidinyl)-1H-imidazol-5-yl)-4-biphenylyl)-1H-imidazol-2-yl)-1-pyrrolidinyl)ethyl)carbamate]	6.00 to 7.00
O=C(C1CC1)N1CCC[C@H]1c1ncc(-c2ccc(-c3ccc(-c4cnc([C@@H]5CCCN5C(=O)C5CC5)[nH]4)cc3)cc2)[nH]1 [Example 11, 5,5′-(4,4′-biphenyldiyl)bis(2-((2S)-1-(cyclopropylcarbonyl)-2-pyrrolidinyl)-1H-imidazole)]	7.00 to 9.00
COC(=O)N[C@H](C(=O)N1CCC[C@H]1c1ncc(-c2ccc(-c3ccc(-c4cnc([C@@H]5CCCN5C(=O)[C@@H](Nc5noc(N)n5)C(C)C)[nH]4)cc3)cc2)[nH]1)C(C)C [cj-16, methyl ((1S)-1-(((2S)-2-(5-(4′-(2-((2S)-1-(N-(5-amino-1,2,4-oxadiazol-3-yl)-L-valyl)-2-pyrrolidinyl)-1H-imidazol-5-yl)-4-biphenylyl)-1H-imidazol-2-yl)-1-pyrrolidinyl)carbonyl)-2-methylpropyl)carbamate]	9.00 to 12.00
CCN(CC)[C@@H](C(=O)N1CCC[C@H]1c1ncc(-c2ccc(-c3ccc(-c4cnc([C@@H]5CCCN5C(=O)[C@@H]5CCC(=O)N5)[nH]4)cc3)cc2)[nH]1)c1ccccc1 [Example M32, (5S)-5-(((2S)-2-(5-(4′-(2-((2S)-1-((2R)-2-(diethylamino)-2-phenylacetyl)-2-pyrrolidinyl)-1H-imidazol-5-yl)-4-biphenylyl)-1H-imidazol-2-yl)-1-pyrrolidinyl)carbonyl)-2-pyrrolidinone]	6.00 to 7.00
CCC(=O)N1CCC[C@H]1c1ncc(-c2ccc(-c3ccc(-c4cnc([C@@H]5CCCN5C(=O)[C@H](NC(=O)OC)c5ccccc5)[nH]4)cc3)cc2)[nH]1 [Example 32, methyl ((1R)-2-oxo-1-phenyl-2-((2S)-2-(5-(4′-(2-((2S)-1-propionyl-2-pyrrolidinyl)-1H-imidazol-5-yl)-4-biphenylyl)-1H-imidazol-2-yl)-1-pyrrolidinyl)ethyl)carbamate]	7.00 to 9.00
CC[C@H](C(=O)N1CCC[C@H]1c1ncc(-c2ccc(-c3ccc(-c4cnc([C@@H]5CCCN5C(=O)[C@@H](NC(=O)OC)C(C)C)[nH]4)cc3)cc2)[nH]1)N(CC)CC [Example M85, methyl ((1S)-1-(((2S)-2-(5-(4′-(2-((2S)-1-((2R)-2-(diethylamino)butanoyl)-2-pyrrolidinyl)-1H-imidazol-5-yl)-4-biphenylyl)-1H-imidazol-2-yl)-1-pyrrolidinyl)carbonyl)-2-methylpropyl)carbamate]	7.00 to 9.00
COCC[C@H](NC(=O)OC)C(=O)N1CCC[C@H]1c1ncc(-c2ccc(-c3ccc(-c4cnc([C@@H]5CCCN5C(=O)[C@@H](NC(=O)OC)[C@@H](C)OC)[nH]4)cc3)cc2)[nH]1 [cj-121, methyl ((1S,2R)-2-methoxy-1-(((2S)-2-(5-(4′-(2-((2S)-1-(N-(methoxycarbonyl)-O-methyl-L-homoseryl)-2-pyrrolidinyl)-1H-imidazol-5-yl)-4-biphenylyl)-1H-imidazol-2-yl)-1-pyrrolidinyl)carbonyl)propyl)carbamate]	9.00 to 12.00
COC(=O)N[C@@H](Cc1c[nH]nn1)C(=O)N1CCC[C@H]1c1ncc(-c2ccc(-c3ccc(-c4cnc([C@@H]5CCCN5C(=O)[C@@H](NC(=O)OC)C(C)C)[nH]4)cc3)cc2)[nH]1 [cj-34, methyl ((1S)-1-(((2S)-2-(5-(4′-(2-((2S)-1-((2S)-2-((methoxycarbonyl)amino)-3-(1H-1,2,3-triazol-4-yl)propanoyl)-2-pyrrolidinyl)-1H-imidazol-5-yl)-4-biphenylyl)-1H-imidazol-2-yl)-1-pyrrolidinyl)carbonyl)-2-methylpropyl)carbamate]	9.00 to 12.00
CC(C)(C)OC(=O)N1CCC(C)(C(=O)N2CCC[C@H]2c2ncc(-c3ccc(-c4ccc(-c5cnc([C@@H]6CCCN6C(=O)[C@@H](c6ccccc6)N6CCCCC6)[nH]5)cc4)cc3)[nH]2)CC1 [Example 107-14, tert-butyl 4-methyl-4-(((2S)-2-(5-(4′-(2-((2S)-1-((2R)-2-phenyl-2-(1-piperidinyl)acetyl)-2-pyrrolidinyl)-1H-imidazol-5-yl)-4-biphenylyl)-1H-imidazol-2-yl)-1-pyrrolidinyl)carbonyl)-1-piperidinecarboxylate]	9.00 to 12.00
CN(C)CC(=O)N1CCC[C@H]1c1ncc(-c2ccc(-c3ccc(-c4cnc([C@@H]5CCCN5C(=O)CN(C)C)[nH]4)cc3)cc2)[nH]1 [Example 14, 2,2′-(4,4′-biphenyldiylbis(1H-imidazole-5,2-diyl(2S)-2,1-pyrrolidinediyl))bis(N,N-dimethyl-2-oxoethanamine)]	6.00 to 7.00
CCN(CC)[C@@H](C(=O)N1CCC[C@H]1c1ncc(-c2ccc(-c3ccc(-c4cnc([C@@H]5CCCN5C(=O)c5cccnc5)[nH]4)cc3)cc2)[nH]1)c1ccccc1 [Example M38, (1R)-N,N-diethyl-2-oxo-1-phenyl-2-((2S)-2-(5-(4′-(2-((2S)-1-(3-pyridinylcarbonyl)-2-pyrrolidinyl)-1H-imidazol-5-yl)-4-biphenylyl)-1H-imidazol-2-yl)-1-pyrrolidinyl)ethanamine]	7.00 to 9.00
CCN(CC)[C@@H](C(=O)N1CCC[C@H]1c1ncc(-c2ccc(-c3ccc(-c4cnc([C@@H]5CCCN5C(=O)[C@H](Nc5ncccn5)C(C)C)[nH]4)cc3)cc2)[nH]1)c1ccccc1 [cj-11k, N-((1R)-1-(((2S)-2-(5-(4′-(2-((2S)-1-((2R)-2-(diethylamino)-2-phenylacetyl)-2-pyrrolidinyl)-1H-imidazol-5-yl)-4-biphenylyl)-1H-imidazol-2-yl)-1-pyrrolidinyl)carbonyl)-2-methylpropyl)-2-pyrimidinamine]	9.00 to 12.00
CC[C@@H](O)C(=O)N1CCC[C@H]1c1ncc(-c2ccc(-c3ccc(-c4cnc([C@@H]5CCCN5C(=O)[C@H](NC(=O)OC)c5ccccc5)[nH]4)cc3)cc2)[nH]1 [Example 56, methyl ((1R)-2-((2S)-2-(5-(4′-(2-((2S)-1-((2R)-2-hydroxybutanoyl)-2-pyrrolidinyl)-1H-imidazol-5-yl)-4-biphenylyl)-1H-imidazol-2-yl)-1-pyrrolidinyl)-2-oxo-1-phenylethyl)carbamate]	9.00 to 12.00
CCN(C)[C@@H](C(=O)N1CCC[C@H]1c1ncc(-c2ccc(-c3ccc(-c4cnc([C@@H]5CCCN5C(=O)[C@H](C)NC(=O)OC)[nH]4)cc3)cc2)[nH]1)c1ccccc1 [Example M99, methyl ((1S)-2-((2S)-2-(5-(4′-(2-((2S)-1-((2R)-2-(ethyl(methyl)amino)-2-phenylacetyl)-2-pyrrolidinyl)-1H-imidazol-5-yl)-4-biphenylyl)-1H-imidazol-2-yl)-1-pyrrolidinyl)-1-methyl-2-oxoethyl)carbamate]	7.00 to 9.00
COC(=O)N[C@H](C(=O)N1CCC[C@H]1c1ncc(-c2ccc(-c3ccc(-c4cnc([C@@H]5CCCN5C(=O)CNCc5ccccc5)[nH]4)cc3)cc2)[nH]1)C(C)C [LS22, methyl ((1S)-1-(((2S)-2-(5-(4′-(2-((2S)-1-(N-benzylglycyl)-2-pyrrolidinyl)-1H-imidazol-5-yl)-4-biphenylyl)-1H-imidazol-2-yl)-1-pyrrolidinyl)carbonyl)-2-methylpropyl)carbamate]	9.00 to 12.00
